Assay results from ChEMBL document CHEMBL4387771, “Discovery of 1,2,3-triazole-based fibroblast growth factor receptor modulators” (Bioorg Med Chem Lett, 2019).
Calls of active or inactive are those of the source. The calls are words filed in the database; no cut-off is given here.

Columns and labels:
[1] = target: Fibroblast growth factor receptor 1 (Rattus norvegicus) (UniProt Q04589); assay: Modulation of FGFR in Wistar rat neuronal cells assessed as protection against glutamate-induced toxicity at 10 uM pretreated for 24 hrs followed by glutamate-stimulation and measured after 24 hrs by CCK8 assay relative to SUN13837; format: cell-based
Fibroblast growth factor receptor 1 (Rattus norvegicus), sequence (Q04589 whole entry): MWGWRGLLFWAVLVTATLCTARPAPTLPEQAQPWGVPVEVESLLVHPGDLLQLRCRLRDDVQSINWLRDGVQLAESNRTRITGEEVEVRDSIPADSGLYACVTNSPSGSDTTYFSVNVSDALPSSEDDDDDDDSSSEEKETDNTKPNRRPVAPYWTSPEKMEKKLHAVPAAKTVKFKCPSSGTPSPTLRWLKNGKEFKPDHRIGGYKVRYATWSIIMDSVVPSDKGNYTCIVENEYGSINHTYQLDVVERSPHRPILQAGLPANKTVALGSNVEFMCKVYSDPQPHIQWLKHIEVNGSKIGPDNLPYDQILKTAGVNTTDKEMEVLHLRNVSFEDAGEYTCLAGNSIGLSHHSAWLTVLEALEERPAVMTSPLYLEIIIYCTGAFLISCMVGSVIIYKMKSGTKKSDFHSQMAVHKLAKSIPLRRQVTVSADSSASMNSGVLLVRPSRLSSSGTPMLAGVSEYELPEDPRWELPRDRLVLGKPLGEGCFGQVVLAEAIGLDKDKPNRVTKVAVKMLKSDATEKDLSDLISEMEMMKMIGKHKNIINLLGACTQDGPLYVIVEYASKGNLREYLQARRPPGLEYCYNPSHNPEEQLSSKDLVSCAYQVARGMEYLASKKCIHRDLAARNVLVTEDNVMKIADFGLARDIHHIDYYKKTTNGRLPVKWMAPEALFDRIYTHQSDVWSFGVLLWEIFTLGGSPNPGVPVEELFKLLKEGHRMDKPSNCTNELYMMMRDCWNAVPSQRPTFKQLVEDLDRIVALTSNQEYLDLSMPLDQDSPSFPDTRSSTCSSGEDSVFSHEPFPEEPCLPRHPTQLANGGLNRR

[2] = target: CYP3A4 (Homo sapiens, UniProt P08684); assay: Inhibition of CYP3A4 in human liver microsomes assessed as enzyme residual activity at 100 uM measured after 30 mins relative to control; format: ADME; conditions: read-out: Activity
CYP3A4, sequence (P08684 whole entry): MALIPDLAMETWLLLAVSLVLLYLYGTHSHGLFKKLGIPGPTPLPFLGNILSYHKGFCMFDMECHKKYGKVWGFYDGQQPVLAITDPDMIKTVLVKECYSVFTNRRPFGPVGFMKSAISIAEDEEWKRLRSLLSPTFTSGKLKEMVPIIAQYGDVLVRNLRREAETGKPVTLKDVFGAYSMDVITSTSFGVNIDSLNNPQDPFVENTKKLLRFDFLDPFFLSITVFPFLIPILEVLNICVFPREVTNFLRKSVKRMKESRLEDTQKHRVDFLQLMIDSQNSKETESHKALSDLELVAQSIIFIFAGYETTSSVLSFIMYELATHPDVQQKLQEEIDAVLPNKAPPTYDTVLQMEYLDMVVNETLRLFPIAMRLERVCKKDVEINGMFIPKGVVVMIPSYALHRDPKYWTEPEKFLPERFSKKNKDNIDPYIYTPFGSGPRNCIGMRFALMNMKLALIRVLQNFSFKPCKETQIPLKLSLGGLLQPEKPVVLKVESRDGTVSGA

[3] = Metabolic stability in human liver microsomes assessed as metabolic turnover rate per mg protein in presence of NADPH; format: ADME, Microsome
[4] = Lipophilicity, log P of the compound by RP-HPLC analysis; format: physicochemical
[5] = target: Fibroblast growth factor receptor 1 (Rattus norvegicus) (UniProt Q04589); assay: Modulation of FGFR in Wistar rat neuronal cells assessed as protection against glutamate-induced toxicity at 10 uM pretreated for 24 hrs followed by glutamate-stimulation and measured after 24 hrs in presence of FGFR1 inhibitor PD166866 by CCK8 assay; format: cell-based
[6] = Elimination half life in Sprague-Dawley rat at 3 mg/kg, iv; format: ADME, organism-based; conditions: in vivo, read-out: beta t1/2 (converted)
[7] = Clearance in Sprague-Dawley rat at 3 mg/kg, iv; format: ADME, organism-based; conditions: in vivo
[8] = AUC in Sprague-Dawley rat at 5 mg/kg, po; format: ADME, organism-based; conditions: in vivo
[9] = Oral bioavailability in Sprague-Dawley rat at 5 mg/kg; format: ADME, organism-based; conditions: in vivo
[10] = Brain to plasma permeability coefficient, Kp of the compound in Sprague-Dawley rat at 3 mg/kg, iv measured after 1 hr; format: ADME, organism-based; conditions: brain and plasma
[11] = Elimination half life in Sprague-Dawley rat at 1 mg/kg, iv; format: ADME, organism-based; conditions: in vivo, read-out: beta t1/2 (converted)
[12] = Clearance in Sprague-Dawley rat at 1 mg/kg, iv; format: ADME, organism-based; conditions: in vivo
[13] = Brain to plasma permeability coefficient, Kp of the compound in Sprague-Dawley rat at 1 mg/kg, iv measured after 1 hr; format: ADME, organism-based; conditions: brain and plasma

With `Cc1nc(OCc2cn(C3CCN(Cc4ccccc4)CC3)nn2)nc(C)c1N` as the molecule, how does the Activity [1] read?
The Activity was 134%.

What about the activity at 0.5 h, 100 µM [2] of the same molecule?
Its activity at 0.5 h, 100 µM is 19%.

And the Drug metabolism [3]?
Its Drug metabolism is 19 pmol/min.

What about the logP [4] of the same molecule?
The logP was 3.

What about the Activity [5] of the same molecule?
Its Activity is “inactive”.

What does the source list for `Cc1ccc(OCc2cn(C3CCN(Cc4ccccc4)CC3)nn2)nn1`?
Activity [1]: 135%; activity at 0.5 h, 100 µM [2]: 100%; Drug metabolism [3]: 45 pmol/min; logP [4]: 3.5

What does the source list for `Cc1ccc(OCc2cnnn2C2CCN(Cc3ccccc3)CC2)nn1`?
Activity [1]: 73%; logP [4]: 3.8

With `Cc1nc(OCC(=O)N(C)C2CCN(Cc3ccccc3)CC2)nc(C)c1N` as the molecule, how does the activity at 0.5 h, 100 µM [2] read?
Its activity at 0.5 h, 100 µM is 60%.

What about the Drug metabolism [3] of the same molecule?
Its Drug metabolism is < 10 pmol/min.

And the logP [4]?
Its logP is 2.3.

For `Cc1c(COc2ncc(Cl)cn2)nnn1C1CCN(CC2CC2)CC1`, which Activity [1] is on record?
The Activity was 311%.

And the activity at 0.5 h, 100 µM [2]?
The activity at 0.5 h, 100 µM was 94%.

What about the Drug metabolism [3] of the same molecule?
Its Drug metabolism is < 10 pmol/min.

What about the logP [4] of the same molecule?
Its logP is 2.4.

What about the Activity [5] of the same molecule?
Its Activity is “inactive”.

What about the half-life [6] of the same molecule?
The half-life was 4 h.

What about the clearance [7] of the same molecule?
Its clearance is 10 mL/min/kg.

And the AUC [8]?
Its AUC is 4520 ng·h/mL.

What about the bioavailability [9] of the same molecule?
The bioavailability was 57%.

And the Kp at 1 h [10]?
Its Kp at 1 h is 1.3.

With `Clc1cnc(OCc2cn(C3CCN(CC4CC4)CC3)nn2)nc1` as the molecule, how does the Activity [1] read?
Its Activity is 162%.

And the activity at 0.5 h, 100 µM [2]?
The activity at 0.5 h, 100 µM was 100%.

What about the Drug metabolism [3] of the same molecule?
The Drug metabolism was 24 pmol/min.

What about the logP [4] of the same molecule?
The logP was 2.6.

What about the half-life [11] of the same molecule?
The half-life was 1.6 h.

And the clearance [12]?
Its clearance is 21.7 mL/min/kg.

And the AUC [8]?
The AUC was 2120 ng·h/mL.

And the bioavailability [9]?
Its bioavailability is 58%.

What about the Kp at 1 h [13] of the same molecule?
The Kp at 1 h was 1.1.

Which Activity [1] does the source give for `Cc1nc(OCc2cn(C3CCN(CC4CC4)CC3)nn2)nc(C)c1N` here?
Its Activity is 116%.

What about the activity at 0.5 h, 100 µM [2] of the same molecule?
The activity at 0.5 h, 100 µM was 100%.

What about the Drug metabolism [3] of the same molecule?
Its Drug metabolism is < 10 pmol/min.

What about the logP [4] of the same molecule?
Its logP is 1.4.

For `Cc1ccc(OCc2cn(C3CCN(CC4CC4)CC3)nn2)nn1`, which Activity [1] is on record?
The Activity was 118%.

What about the activity at 0.5 h, 100 µM [2] of the same molecule?
The activity at 0.5 h, 100 µM was 100%.

And the Drug metabolism [3]?
Its Drug metabolism is 34 pmol/min.

What about the logP [4] of the same molecule?
Its logP is 1.4.

What does the source list for `Cc1cnc(OCc2cn(C3CCN(CC4CC4)CC3)nn2)nc1`?
Activity [1]: 100%; activity at 0.5 h, 100 µM [2]: 100%; logP [4]: 1.7

Which results are given for `Cc1cnc(OCc2cn(C3CCN(Cc4ccccc4)CC3)nn2)nc1`?
Activity [1]: 66%; activity at 0.5 h, 100 µM [2]: 100%; Drug metabolism [3]: 40 pmol/min; logP [4]: 4

What does the source list for `Clc1cnc(OCc2cn(C3CCN(Cc4ccccc4)CC3)nn2)nc1`?
Activity [1]: 43%; activity at 0.5 h, 100 µM [2]: 99%; Drug metabolism [3]: 86 pmol/min; logP [4]: 5
